Data published in publication PMC3561363, “A Novel Retro-Inverso Peptide Inhibitor Reduces Amyloid Deposition, Oxidation and Inflammation and Stimulates Neurogenesis in the APPswe/PS1ΔE9 Mouse Model of Alzheimer’s Disease” (PLoS ONE, 2013).

What was measured:
[1] = system: Drosophila; design: method as in PMID 20559435; conditions: cited from earlier work
[2] = system: soluble Aβ and β-amyloid plaque deposits in mice; design: method as in PMID 22323736; conditions: oral administration, cited from earlier work
[3] = system: Aβ; design: method as in 2 sources, ref 16 = [16]; PMID 20230062; doi:10.1021/bi100144m; 16 Taylor M , Moore S , Mayes J , Parkin E , Beeg M , et al ( 2010 ) Development of a proteolytically stable retro-inverso peptide inhibitor of β-amyloid oligomerization as a potential novel treatment ||| ref 5, 52 = [5]; PMID 19605645; doi:10.1523/JNEUROSCI.1071-09.2009; 5 Ma QL , Yang F , Rosario ER , Ubeda OJ , Beech W , et al ( 2009 ) β-amyloid oligomers induce phosphorylation of tau and inactivation of insulin receptor substrate via c-Jun N-terminal kinase signali || [52]; PMID 15590663; doi:10.1074/jbc.M404751200; 52 Yang F , Lim GP , Begum AN , Ubeda OJ , Simmons MR , et al ( 2005 ) Curcumin inhibits formation of amyloid β oligomers and fibrils, binds plaques, and reduces amyloid in vivo . J Biol Chem 280 : 58; conditions: cited from earlier work
[4] = design: method as in earlier work; conditions: no reference given; 53 concern derivatives; cited from earlier work
[5] = system: AD patients; conditions: cited from earlier work
[6] = system: cultured cells; design: method as in PMID 20230062; conditions: cited from earlier work
[7] = system: Aβ42; test: Thioflavin T (ThT) assay for Aβ fibrils; format: biochemical; conditions: ThT, 25 µM Aβ42, 48 h; figure title
Method: This method was the same as that published previously. Briefly, 60 µl samples of solutions containing Aβ42 (25 µM), ThT (15 µM) and between 0 and 125 µM RI-OR2 or RI-OR2–TAT, in 10 mM phosphate buffered saline (PBS), pH 7.4, were incubated in sealed, black, clear-bottomed 384-well plates (Corning). ThT fluorescence was monitored every 10 mins (λex = 442 nm, λem = 483 nm) for 48 h at 30°C in a Biotek Synergy 2 plate reader.

[8] = molecular target: immobilized Aβ(1–42) (Aβ42) monomers, oligomers and fibrils; design: method as in PMID 20230062; conditions: SPR; cited from earlier work
[9] = system: SHSY-5Y cells; test: Cell penetration of fluorescein-tagged peptides, microscopy; conditions: 1 µM
[10] = system: APP/PS1 transgenic mice; test: Blood brain barrier penetration and brain localisation after i.p. injection; format: in vivo, mouse; conditions: 100 nmol/kg i.p., 1 h, 17-month old APP/PS1 mice
Method: APPswe/PS1ΔE9 mice with a C57Bl/6 background (APP/PS1 mice) were obtained from the Jackson lab (http://research.jax.org/repository/alzheimers.html). […] To look at the effects of RI-OR2-TAT on mouse brain pathology (experiment 2), 8 female 10-months-old APP/PS1 mice were used. The animals were housed in single cages in a temperature controlled holding room (21.5°C±1) with 12∶12 h light and dark cycle. Food and water was available ad libitum.
The animals were then housed in a dark room. After 1 h, the animals were anaesthetised with isoflurane and sodium barbiturate (Dolethal, Bayer, Germany), transcardially perfused and the brains were retrieved and fixed in 4% ice cold paraformaldehyde.
For experiment 1 (BBB penetration), individual sections were incubated with the following primary antibodies at 4°C overnight: anti-Aβ (1∶200 dilution, Invitrogen, 71–5800), or anti-Iba 1 (1∶1000 dilution, Wako 016-20001, Germany). Sections were then stained with goat anti-rabbit Alexa Fluor 555 (1∶150 dilution, A21428 Invitrogen) for 1 h.
All sections were visualized using an Axio Scope 1 fluorescence microscope (Zeiss, Germany). For quantification, two images per section were taken from the cortex area with a 10X objective for 8-oxo guanine and β-amyloid staining, and a 100X objective for Iba1 staining, with a minimum of 5 sections visualized per animal. […]

Compound: O=C1C=C(N[C@@H](Cc2c[nH]c3ccccc23)C(=O)O)C(=O)c2ccccc21 [NQTrp, 1,4-naphthoquinon-2-yl-L-tryptophan]
- phenotypic changes in Drosophila AD model [1]: reversed phenotypic changes in Drosophila

Compound: C=C(c1ccc(C(=O)O)cc1)c1cc2c(cc1C)C(C)(C)CCC2(C)C [bexarotene]
- clearance of soluble Aβ ([2]; apoE-mediated mechanisms): enhance clearance of soluble Aβ
- β-amyloid plaque deposits [2]: reduce β-amyloid plaque deposits in mice

Compound: COc1cc(/C=C/C(=O)CC(=O)/C=C/c2ccc(O)c(OC)c2)ccc1O [curcumin, reference compound]
- inhibition of Aβ aggregation [3]: effective inhibitor of Aβ aggregation
- bioavailability [4]: poor bioavailability

Compound: AN1792: pre-aggregated Aβ42, first clinical trial of immunisation
- adverse effects in first clinical trial ([5]; human, in vivo): adverse effects involving detrimental T-cell-mediated brain inflammation

Compound: Ac-rGffvlkGr-NH2 [RI-OR2]
- inhibition of Aβ oligomer and fibril formation in vitro [3]: blocks the formation of Aβ oligomers and fibrils in vitro
- effect on Aβ toxicity to cultured cells [6]: inhibits the toxic effects of Aβ on cultured cells
- inhibition of Aβ42 aggregation (Fig. 1) [7]: inhibit the aggregation of Aβ42
- Kd [8]: 9 to 29 µM

Compound: Solanezumab: Solanezumab (Eli Lilly)
- Phase III trial outcome ([5]; mild-to-moderate AD, ref presented at CTAD 2012): did not achieve key Phase III trial goals of improved cognition and function

Compound: fluorescein-rGffvlkGr-NH2 [Flu-RI-OR2]
- cell uptake (fluorescence localisation) ([9]; 1 h): remained in the culture medium

Compound: fluorescein-rGffvlkGrrrrqrrkkrGy-NH2 [Flu-RI-OR2-TAT]
- localisation relative to activated microglia ([10]; AlexaFluor 555 anti-Iba 1): found inside activated microglial cells
- localisation relative to amyloid plaques ([10]; cerebral cortex, AlexaFluor 555 anti-Aβ): co-localised with amyloid plaques
- cell uptake (fluorescence localisation) ([9]; 10 mins): build up of fluorescence inside the cells
